In patent publication US10471046B2, “Method for treating, preventing, or reducing the risk of skin infection” (Melinta Subsidiary Corp., priority 2014, dated 2019):
Converted amounts (≈) assume the structure as drawn.

System: S. aureus
Assay: Minimum inhibitory concentrations (MICs) for S. aureus of exemplary compounds (Table 2)
Type: cell-based
Details: Staphylococcus aureus, minimum inhibitory concentrations for S. aureus; read-out: MICs
How it was run: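 Growth of S. aureus in media with or without compound, by broth microdilution in microtiter trays following NCCLS M7-A5 guidelines. Values are MICs in μg/mL.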

Row | SMILES | MIC [µg/mL]
1 | CC(=O)NC[C@H]1CN(c2ccc(-c3ccc(C(=O)NCc4ncon4)cc3)c(F)c2)C(=O)O1 [Compound 4224, 4′-[5-(S)-(Acetylamino-methyl)-2-oxo-oxazolidin-3-yl]-2′-fluoro-biphenyl-4-carboxylic acid ([1,2,4]oxadiazol-3-ylmethyl)-amide] | 0.5 (≈ 1.1 µM)
2 | CC(=O)NC[C@H]1CN(c2ccc(-c3ccc(CNCc4csc(-c5ccccc5)n4)cc3)c(F)c2)C(=O)O1 [Compound 4122, N-[3-(2-Fluoro-4′-{[(2-phenyl-thiazol-4-ylmethyl)-amino]-methyl}-biphenyl-4-yl)-2-oxo-oxazolidin-5-(S)-ylmethyl]-acetamide] | 1 (≈ 1.88 µM)
3 | CCOC(=O)c1c(CNCc2ccc(-c3ccc(N4C[C@H](CNC(C)=O)OC4=O)cc3F)cc2)c(C)n(C2CC2)c1C [Compound 4157, 4-[({4′-[5-(S)-(Acetylamino-methyl)-2-oxo-oxazolidin-3-yl]-2′-fluoro-biphenyl-4-ylmethyl}-amino)-methyl]-1-cyclopropyl-2,5-dimethyl-1H-pyrrole-3-carboxylic acid ethyl ester] | 8 (≈ 13.9 µM)
4 | CC(=O)NC[C@H]1CN(c2ccc(-c3ccc(CN(C)Cc4cnn[nH]4)cc3)c(F)c2)C(=O)O1 [Compound 4276, N-[3-(2-Fluoro-4′-{[methyl-(3H-[1,2,3]triazol-4-ylmethyl)-amino]-methyl}-biphenyl-4-yl)-2-oxo-oxazolidin-5-(S)-ylmethyl]-acetamide] | 0.25 (≈ 0.552 µM)
5 | CC(=O)NC[C@H]1CN(c2ccc(-c3ccc(CNCc4c(CO)cnc(C)c4O)cc3)c(F)c2)C(=O)O1 [Compound 4095, N-[3-(2-Fluoro-4′-{[(3-hydroxy-5-hydroxymethyl-2-methyl-pyridin-4-ylmethyl)-amino]-methyl}-biphenyl-4-yl)-2-oxo-oxazolidin-5-(S)-ylmethyl]-acetamide] | 4 (≈ 7.87 µM)
6 | CC(=O)NC[C@H]1CN(c2ccc(-c3ccc(Cn4ccnc4)nc3)c(F)c2)C(=O)O1 [Compound 1077, N-{3-[3-Fluoro-4-(6-imidazol-1-ylmethyl-pyridin-3-yl)-phenyl]-2-oxo-oxazolidin-5-(S)-ylmethyl}-acetamide] | 4 (≈ 9.77 µM)
7 | CC(=O)NC[C@H]1CN(c2ccc(-c3ccc([C@@H](NCc4ccncc4)C(N)=O)cc3)c(F)c2)C(=O)O1 [Compound 4184, 2-{4′-[5-(S)-(Acetylamino-methyl)-2-oxo-oxazolidin-3-yl]-2′-fluoro-biphenyl-4-yl}-2-(R)-[(pyridin-4-ylmethyl)-amino]-acetamide] | 16 (≈ 32.6 µM)
8 | CC(=O)NC[C@H]1CN(c2ccc(-c3ccc(Cn4nnnc4Cl)cc3)c(F)c2)C(=O)O1 [Compound 1083, N-{3-[4′-(5-Chloro-tetrazol-1-ylmethyl)-2-fluoro-biphenyl-4-yl]-2-oxo-oxazolidin-5-(S)-ylmethyl}-acetamide] | 0.5 (≈ 1.12 µM)
9 | CO/N=C(\CNCc1cocn1)c1ccc(-c2ccc(N3C[C@H](CNC(C)=O)OC3=O)cc2F)cc1 [Compound 4255, N-[3-(2-Fluoro-4′-{1-methoxyimino-2-[(oxazol-4-ylmethyl)-amino]-ethyl}-biphenyl-4-yl)-2-oxo-oxazolidin-5-(S)-ylmethyl]-acetamide] | 2 (≈ 4.04 µM)
10 | CC(=O)NC[C@H]1CN(c2ccc(-c3ccc(CNN4CCN(C)CC4)cc3)c(F)c2)C(=O)O1 [Compound 2057, N-(3-{2-Fluoro-4′-[(4-methyl-piperazin-1-ylamino)-methyl]-biphenyl-4-yl}-2-oxo-oxazolidin-5-(S)-ylmethyl)-acetamide] | 1 (≈ 2.2 µM)
11 | CC(=O)NC[C@H]1CN(c2ccc(-c3ccc(CNCc4cnoc4)nc3)c(F)c2)C(=O)O1 [Compound 4252, N-{3-[3-Fluoro-4-(6-{[(isoxazol-4-ylmethyl)-amino]-methyl}-pyridin-3-yl)-phenyl]-2-oxo-oxazolidin-5-(S)-ylmethyl}-acetamide] | 2 (≈ 4.55 µM)
12 | CC(=O)NC[C@H]1CN(c2ccc(-c3ccc(C(CO)NCc4csnn4)cc3)c(F)c2)C(=O)O1 (mixture of isomers) [Compound 4171, N-[3-(2-Fluoro-4′-{2-hydroxy-1-[([1,2,3]thiadiazol-4-(R/S)-ylmethyl)-amino]-ethyl}-biphenyl-4-yl)-2-oxo-oxazolidin-5-(S)-ylmethyl]-acetamide] | 4 (≈ 8.24 µM)
